According to patent publication US11707477B2, “Formulation comprising a gemcitabine-prodrug” (NuCana plc, priority 2014, dated 2023):
Values joined by “and” are separate entries in the source; they are usually repeats but may differ in a detail not shown here. Equal entries are not always repeated.

Tests used:
[1] = Effect of aqueous dilution on DMA solubility and physical stability; type: physicochemical
Excerpt: Table 2 gives the effect of aqueous dilution on DMA solubility

Solubility in water = type: physicochemical; settings: regardless of salt content or pH
[2] = Preferred formulation system: stability; type: physicochemical
Experimental: The final administration formulation is then prepared by diluting this second formulation to the desired concentration with saline.

[3] = Solubility in a range of solvents on dilution; type: physicochemical
Experimental: The protocol adopted was as follows:
A small volume, 1-2 mL, of each solvent system was prepared and a weight of the compound in question was added. The solutions were stirred for approximately 4 hours and then […] membrane filtered. The concentration of the compound in question in the filtrate was then determined by HPLC assay.

[4] = Clinical testing of 80:20 DMA:0.9% saline formulation; type: in vivo
[5] = DMA 45.8 mg/mL, 1:3 with 0.9% saline containing […] Tween 80
[6] = DMA 45.8 mg/mL, 1:4.5 with 0.9% saline containing […] Tween 80
[7] = DMA 55.0 mg/mL, 1:3 with 0.9% saline containing […] Tween 80
[8] = DMA 73.3 mg/mL, 1:3 with 0.9% saline containing […] Tween 80
[9] = DMA […] mg/mL, Solvent:Saline (0.9%) 1:3
[10] = PEG 400 87.7 mg/mL, 1:1 glucose
[11] = PEG 400 87.7 mg/mL, 1:2 glucose
[12] = PEG 400, 45.6 mg/mL, 1:1.5 with 0.9% saline containing […] Tween 80
[13] = PEG 400, 45.6 mg/mL, 1:2 with 0.9% saline containing […] Tween 80
[14] = PEG 400, 45.6 mg/mL, 1:2.5 with 0.9% saline containing […] Tween 80
[15] = PEG 400, 91.2 mg/mL, 1:2 with 0.9% saline containing […] Tween 80
[16] = PEG 400, 91.2 mg/mL, Solvent:Saline (0.9%) 1:1
[17] = PEG 400, 91.2 mg/mL, Solvent:Saline (0.9%) 1:2

C[C@H](NP(=O)(OC[C@H]1O[C@@H](n2ccc(N)nc2=O)C(F)(F)C1O)Oc1ccccc1)C(=O)OCc1ccccc1 (stereo partly drawn) [NUC-1031, 2′-Deoxy-2′,2′-difluoro-D-cytidine-5′-O-[phenyl (benzoxy-L-alaninyl)]phosphate]
Assay ([1]; 50:50 DMA:0.9% Saline): 66 mg/mL | Precipitation > 24 hours ([1]; 50:50 DMA:0.9% Saline): Yes | Assay ([1]; 60:40 DMA:0.9% Saline): 293 mg/mL | Precipitation > 24 hours ([1]; 60:40 DMA:0.9% Saline): Yes | Assay ([1]; 70:30 DMA:0.9% Saline): 339 mg/mL | Precipitation > 24 hours ([1]; 70:30 DMA:0.9% Saline): Yes | Precipitation (2 weeks) ([1]; 80:20 DMA in 0.9% Saline, assay 270 mg/ml): Yes | Precipitation (2 weeks) ([1]; 80:20 DMA in 0.9% Saline, assay 272 mg/ml): No | Precipitation (2 weeks) ([1]; 80:20 DMA in 0.9% Saline, assay 315 mg/ml): Yes | Assay ([1]; 80:20 DMA:0.9% Saline): 386 mg/mL | Precipitation > 24 hours ([1]; 80:20 DMA:0.9% Saline): Yes | Precipitation (2 weeks) ([1]; 85:15 DMA in 0.9% Saline, assay 338 mg/ml): No | Assay ([1]; 90:10 DMA:0.9% Saline): 483 mg/mL | Precipitation > 24 hours ([1]; 90:10 DMA:0.9% Saline): No | Assay ([1]; 95:5 DMA:0.9% Saline): 518 mg/mL | Precipitation > 24 hours ([1]; 95:5 DMA:0.9% Saline): No | Assay ([1]; 100% DMA): 592 mg/mL | Precipitation > 24 hours ([1]; 100% DMA): No | Assay ([1]; Table 2a, 80:20 DMA solution in 0.9% Saline): 304 mg/mL and 272 mg/mL and 315 mg/mL and 270 mg/mL | Assay ([1]; Table 2a, 85:15 DMA solution in 0.9% Saline): 338 mg/mL | solubility in water (Solubility in water): essentially insoluble in water | stability for storage and transport ([2]; 250 mg/mL in 80:20 (by volume) DMA:0.9% saline): sufficiently stable for long term storage and transport | osmolarity ([2]; 4, 8 and 10 mg/mL in 0.45% and 0.9% saline): acceptable for peripheral administration | time stable to precipitation and to degradation after dilution ([2]; 4, 8 and 10 mg/mL, 0.45% and 0.9% saline, pH 4.5, 6.0 and 7.0, not stirred): 48 h | Appearance [3, 5]: Clear | NUC-1031 mg/mL HPLC assay filtrate [3, 5]: 11.5 mg/mL | Appearance ([3]; DMA 45.8 mg/mL, 1:3.5 with 0.9% saline containing […] Tween 80): Clear | NUC-1031 mg/mL HPLC assay filtrate ([3]; DMA 45.8 mg/mL, 1:4 with 0.9% saline containing […] Tween 80): 8.4 mg/mL | Appearance ([3]; DMA 45.8 mg/mL, 1:4 with 0.9% saline containing […] Tween 80 (precipitates >30 min, stirring precipitate dissolves)): Initially clear | Appearance [3, 6]: Slightly turbid | NUC-1031 mg/mL HPLC assay filtrate [3, 6]: 7.2 mg/mL | Appearance [3, 7]: Slightly turbid | NUC-1031 mg/mL HPLC assay filtrate [3, 7]: 13.9 mg/mL | Appearance [3, 8]: Precipitation | NUC-1031 mg/mL HPLC assay filtrate [3, 8]: 14.7 mg/mL | Appearance ([3]; DMA 92.5 mg/mL, 1:1 glucose): Clear | Evidence of further precipitation on storage of filtrate at RT >24 h ([3]; DMA 92.5 mg/mL, 1:1 glucose): No | NUC-1031 mg/mL HPLC assay filtrate ([3]; DMA 92.5 mg/mL, 1:1 glucose): 47.3 mg/mL | Appearance ([3]; DMA 92.5 mg/mL, 1:2 glucose): Slightly turbid | Evidence of further precipitation on storage of filtrate at RT >24 h ([3]; DMA 92.5 mg/mL, 1:2 glucose): Yes | NUC-1031 mg/mL HPLC assay filtrate ([3]; DMA 92.5 mg/mL, 1:2 glucose): 29.7 mg/mL | Appearance [3, 9]: Precipitation | NUC-1031 mg/mL HPLC assay filtrate [3, 9]: 14.8 mg/mL | NUC-1031 mg/mL HPLC assay filtrate ([3]; DMA […], 1:2 with 0.9% saline containing […] Tween 80): 30.9 mg/mL | NUC-1031 mg/mL HPLC assay filtrate ([3]; DMA […], 1:3 with 0.9% saline containing […] Tween 80): 15.2 mg/mL | NUC-1031 mg/mL HPLC assay filtrate ([3]; DMA […], Solvent:Saline (0.9%) 1:1): 47.0 mg/mL | NUC-1031 mg/mL HPLC assay filtrate ([3]; DMA […], Solvent:Saline (0.9%) 1:2): 30.2 mg/mL | Appearance ([3]; NMP 115.0 mg/mL, 1:1 glucose): Slightly turbid | Evidence of further precipitation on storage of filtrate at RT >24 h ([3]; NMP 115.0 mg/mL, 1:1 glucose): No | NUC-1031 mg/mL HPLC assay filtrate ([3]; NMP 115.0 mg/mL, 1:1 glucose): 58.5 mg/mL | Appearance ([3]; NMP 115.0 mg/mL, 1:1 saline): Slightly turbid | Evidence of further precipitation on storage of filtrate at RT >24 h ([3]; NMP 115.0 mg/mL, 1:1 saline): No | NUC-1031 mg/mL HPLC assay filtrate ([3]; NMP 115.0 mg/mL, 1:1 saline): 60.0 mg/mL | Appearance ([3]; NMP 115.0 mg/mL, 1:2 glucose): Slightly turbid | Evidence of further precipitation on storage of filtrate at RT >24 h ([3]; NMP 115.0 mg/mL, 1:2 glucose): Yes | NUC-1031 mg/mL HPLC assay filtrate ([3]; NMP 115.0 mg/mL, 1:2 glucose): 39.6 mg/mL | Appearance ([3]; NMP 115.0 mg/mL, 1:2 saline): Slightly turbid | Evidence of further precipitation on storage of filtrate at RT >24 h ([3]; NMP 115.0 mg/mL, 1:2 saline): Yes | NUC-1031 mg/mL HPLC assay filtrate ([3]; NMP 115.0 mg/mL, 1:2 saline): 40.5 mg/mL | evidence of precipitation after dilution ([3]; NMP and DMA solutions, dilution 1:1 with water or saline): did not show any evidence of precipitation | Appearance [3, 10]: Slightly turbid | Evidence of further precipitation on storage of filtrate at RT >24 h [3, 10]: Yes | NUC-1031 mg/mL HPLC assay filtrate [3, 10]: 46.1 mg/mL | Appearance [3, 11]: Turbid | Evidence of further precipitation on storage of filtrate at RT >24 h [3, 11]: No | NUC-1031 mg/mL HPLC assay filtrate [3, 11]: 17.4 mg/mL | Appearance [3, 12]: Clear | Evidence of further precipitation on storage of filtrate at RT >24 h [3, 12]: Yes | Appearance [3, 13]: Clear | Evidence of further precipitation on storage of filtrate at RT >24 h [3, 13]: Yes | Appearance [3, 14]: Precipitation, | Evidence of further precipitation on storage of filtrate at RT >24 h [3, 14]: Yes | NUC-1031 mg/mL HPLC assay filtrate [3, 14]: 10.5 mg/mL | Appearance [3, 15]: Slightly turbid | Evidence of further precipitation on storage of filtrate at RT >24 h [3, 15]: Yes | NUC-1031 mg/mL HPLC assay filtrate [3, 15]: 18.8 mg/mL | Appearance [3, 16]: Clear | Evidence of further precipitation on storage of filtrate at RT >24 h [3, 16]: Yes | Appearance [3, 17]: Precipitation | Evidence of further precipitation on storage of filtrate at RT >24 h [3, 17]: Yes | NUC-1031 mg/mL HPLC assay filtrate [3, 17]: 16.2 mg/mL | treatment outcome in the clinical study ([4]; 250 mg NUC-1031 in 80:20 DMA:0.9% saline solution, 5 ml vial): successful treatment | tolerability of injection ([4]; 250 mg NUC-1031 in 80:20 DMA:0.9% saline, needed to be administered by a central line): pain on injection
